From US12371428B2 (Exelixis, Inc., priority 2019, dated 2025) come the findings set out here.

The target of assay [1] is Human KDR (residues K790-V1356) (Homo sapiens (Human), UniProt P35968). The assay is described as follows: Human KDR kinase assay, 33P-phosphoryl transfer radiometric (Example B-1, KinaseProfiler). The class given is biochemical. The following applies: protocol of Example B-1 (compounds 21-27, 41-47, 99, 104). On the procedure: (§1) Kinase activity and compound inhibition were investigated using the ^33P-Phosphoryl transfer radiometric kinase assay, performed using the KinaseProfiler™ service of Eurofins Pharma Discovery Services UK Limited. Dose-response experiments were performed using nine compound concentrations in a 96-well microtiter plate. For each assay, all compounds were prepared to a 50× final assay concentration (50 μM) in 100% DMSO, then diluted in a half-log series, with the final top concentration at 1 μM. This working stock of the compound was added to the assay well as the first component in the reaction, followed by the remaining components as detailed in the following assay protocols below. The positive control wells (100% kinase activity) contain all components of the reaction including 2% DMSO (control for solvent effects), except the compound of interest. Blank wells contain all components of the reaction, with the reference inhibitor, staurosporine. This reference compound was used to abolish kinase activity and generated the 0% kinase activity base-line. IC50 values were calculated by nonlinear regression analysis using the sigmoidal dose-response (variable slope) curve fit on XLFit version 5.3 (ID Business Solutions).
Human KDR (residues K790-V1356), sequence (P35968 790-1356): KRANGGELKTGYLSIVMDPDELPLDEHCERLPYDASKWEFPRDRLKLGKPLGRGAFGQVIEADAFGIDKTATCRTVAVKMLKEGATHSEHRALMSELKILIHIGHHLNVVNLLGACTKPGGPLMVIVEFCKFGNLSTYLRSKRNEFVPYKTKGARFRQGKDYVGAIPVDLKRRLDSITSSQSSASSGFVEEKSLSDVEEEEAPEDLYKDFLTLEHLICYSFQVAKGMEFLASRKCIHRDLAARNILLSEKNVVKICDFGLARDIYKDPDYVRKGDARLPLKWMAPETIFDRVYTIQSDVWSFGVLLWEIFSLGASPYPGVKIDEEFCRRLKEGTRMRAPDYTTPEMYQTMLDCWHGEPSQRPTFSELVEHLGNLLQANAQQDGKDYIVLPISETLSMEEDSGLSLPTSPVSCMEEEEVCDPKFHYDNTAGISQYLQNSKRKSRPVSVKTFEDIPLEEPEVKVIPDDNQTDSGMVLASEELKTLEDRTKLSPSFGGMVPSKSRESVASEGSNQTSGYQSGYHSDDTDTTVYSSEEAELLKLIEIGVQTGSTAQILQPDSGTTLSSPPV
(§2) Example B-1: Human KDR (residues K790-V1356, 55 nM) was incubated with 8 mM MOPS pH 7.0, 0.2 mM EDTA, 0.33 mg/mL myelin basic protein, 10 mM magnesium acetate, and 10 μM [γ-^33P-ATP]. The reaction was initiated by the addition of the Mg/ATP mix. After incubation for 40 minutes at room temperature, the reaction was stopped by the addition of phosphoric acid to a concentration of 0.5%. A reaction aliquot of 10 μL was then spotted onto a P30 filtermat and washed four times for 4 minutes in 0.425% phosphoric acid and once in methanol prior to drying and scintillation counting. Incorporated ^33P was measured using the Wallac Microbeta scintillation counter (Perkin Elmer).

In assay [2] the target is Human Met (residues R974-S1390 with A1209G and V1290L) (Homo sapiens, UniProt P08581). Kind of assay: Human Met kinase assay, 33P-phosphoryl transfer radiometric (Example D-1, KinaseProfiler). The note with it: protocol of Example D-1 (compounds 21-27, 41-47, 99, 104); read-out: c-Met IC50. The class given is biochemical. As to the method: as §1
Human Met (residues R974-S1390 with A1209G and V1290L), sequence (P08581 25-1390 limits assumed, stated change not applied): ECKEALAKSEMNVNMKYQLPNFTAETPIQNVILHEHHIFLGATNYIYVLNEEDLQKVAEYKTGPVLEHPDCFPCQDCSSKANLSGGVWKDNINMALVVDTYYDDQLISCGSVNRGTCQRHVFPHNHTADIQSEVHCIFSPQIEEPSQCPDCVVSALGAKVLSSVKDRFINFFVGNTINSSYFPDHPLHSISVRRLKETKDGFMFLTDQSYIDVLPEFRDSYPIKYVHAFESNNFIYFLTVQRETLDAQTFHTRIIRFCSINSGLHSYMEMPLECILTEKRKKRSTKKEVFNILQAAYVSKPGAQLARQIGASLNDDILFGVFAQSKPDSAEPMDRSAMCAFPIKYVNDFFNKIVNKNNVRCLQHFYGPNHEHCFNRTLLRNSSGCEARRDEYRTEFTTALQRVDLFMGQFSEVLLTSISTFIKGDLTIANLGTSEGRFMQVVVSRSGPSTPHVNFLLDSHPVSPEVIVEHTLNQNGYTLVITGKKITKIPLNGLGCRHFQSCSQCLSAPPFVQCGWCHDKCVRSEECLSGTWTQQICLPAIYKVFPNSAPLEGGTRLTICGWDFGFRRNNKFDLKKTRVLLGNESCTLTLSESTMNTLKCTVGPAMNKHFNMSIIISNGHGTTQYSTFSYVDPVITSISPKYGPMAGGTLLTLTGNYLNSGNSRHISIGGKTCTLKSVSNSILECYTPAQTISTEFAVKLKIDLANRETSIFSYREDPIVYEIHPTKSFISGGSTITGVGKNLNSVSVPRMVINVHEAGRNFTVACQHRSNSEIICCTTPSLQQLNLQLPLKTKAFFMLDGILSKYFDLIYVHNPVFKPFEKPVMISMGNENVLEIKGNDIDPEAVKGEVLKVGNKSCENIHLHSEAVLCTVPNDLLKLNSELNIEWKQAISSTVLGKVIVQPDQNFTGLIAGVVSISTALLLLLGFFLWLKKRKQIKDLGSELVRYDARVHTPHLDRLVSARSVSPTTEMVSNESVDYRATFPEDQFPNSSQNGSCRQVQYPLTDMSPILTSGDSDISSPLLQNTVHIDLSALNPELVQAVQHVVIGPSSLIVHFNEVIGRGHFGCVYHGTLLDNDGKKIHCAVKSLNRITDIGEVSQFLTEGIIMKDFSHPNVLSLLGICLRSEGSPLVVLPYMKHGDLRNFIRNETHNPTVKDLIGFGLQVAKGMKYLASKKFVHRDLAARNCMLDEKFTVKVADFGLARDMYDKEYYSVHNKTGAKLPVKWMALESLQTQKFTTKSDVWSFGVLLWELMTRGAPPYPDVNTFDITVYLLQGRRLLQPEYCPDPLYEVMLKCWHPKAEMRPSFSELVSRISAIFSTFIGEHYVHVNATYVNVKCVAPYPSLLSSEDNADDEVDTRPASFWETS
as §2, with “D-1:” for “B-1:”, “Met” for “KDR”, “R974-S1390 with A1209G and V1290L, 3.4” for “K790-V1356, 55”, “250 µM […] (SEQ ID NO:3), 1 mM sodium orthovanadate, 5 mM […],” for “0.33 mg/mL myelin basic protein,”

Assay [3] deals with Met (phospho-Met, HGF-stimulated PC-3 prostate cancer cells) (Homo sapiens (Human), UniProt P08581). The assay is described as follows: Met autophosphorylation ELISA in PC-3 cells (Example F). It is filed as cell-based. The following applies: cellular activity; Met autophosphorylation ELISA in PC-3 cells; read-out: c-Met IC50. Put shortly:
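Compounds were tested on HGF-stimulated PC-3 cells. After 24 h culture and 3 h serum starvation, cells got compound for 1 h and 100 ng/mL HGF for 10 min, and Met tyrosine phosphorylation was measured by ELISA.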

Assay [4] deals with Human KDR (residues 790-1356) (Homo sapiens (Human), UniProt P35968). The assay is described as follows: Human KDR kinase assay, HTRF KinEase (Example B-2). It is filed as biochemical. The note with it: protocol of Example B-2. In short, it runs like this:
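Ten compound concentrations (3% DMSO final) were pre-plated, then KDR (790-1356) with biotinylated peptide in Mg/Mn/DTT buffer was added; ATP at Km (4.0 μM) started a 40 min room-temperature reaction. Detection used Eu-TK antibody and SA-XL665 in EDTA buffer; activity normalized to DMSO and reference inhibitor, IC50 by logistic fit.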
In general terms: TR-FRET usually uses a lanthanide donor and a delayed reading to cut background.

Met (phospho-Met, HGF-stimulated PC-3 prostate cancer cells), sequence (P08581 25-1390): as the sequence (P08581 25-1390 limits assumed, stated change not applied) above
Human KDR (residues 790-1356), sequence (P35968 790-1356): as the sequence (P35968 790-1356) above

For `COc1cc2nccc(Oc3ccc(NC(=O)c4cn(C(C)C)c(C)c(-c5ccc(F)cc5)c4=O)cc3F)c2nc1OC` [Compound 21, N-[4-[(6,7-Dimethoxy-1,5-naphthyridin-4-yl)oxy]-3-fluorophenyl]-5-(4-fluorophenyl)-6-methyl-4-oxo-1-propan-2-ylpyridine-3-carboxamide], the half-inhibitory concentration (IC50) in assay [1], in assay [2] and in assay [3] was under 100 nM each time.
On to `COc1cc2nccc(Oc3ccc(NC(=O)c4cn(C(C)C)c(C)c(-c5ccc(F)cc5)c4=O)cc3F)c2cc1OC` [Compound 22, N-[4-(6,7-Dimethoxyquinolin-4-yl)oxy-3-fluorophenyl]-5-(4-fluorophenyl)-6-methyl-4-oxo-1-propan-2-ylpyridine-3-carboxamide], for which the half-maximal inhibitory concentration (IC50) in assay [1], in assay [2] and in assay [3] was under 100 nM in each case.
With `COc1cc2nccc(Oc3ccc(NC(=O)c4cnc(C)c(-c5ccc(F)cc5)c4O)cc3F)c2nc1C` [Compound 541, N-[3-fluoro-4-[(7-methoxy-6-methyl-1,5-naphthyridin-4-yl)oxy]phenyl]-5-(4-fluorophenyl)-4-hydroxy-6-methylpyridine-3-carboxamide], the IC50 in assay [3] and in assay [4] was under 100 nM each time.
For the compound `COc1cc2nccc(Oc3cc(F)c(NC(=O)c4cnc(C)c(-c5ccc(F)cc5)c4O)cc3F)c2nc1C` [Compound 542, N-[2,5-difluoro-4-[(7-methoxy-6-methyl-1,5-naphthyridin-4-yl)oxy]phenyl]-5-(4-fluorophenyl)-4-hydroxy-6-methylpyridine-3-carboxamide], the half-inhibitory concentration (IC50) (as a rule, the concentration that gives 50% inhibition) is under 100 nM in assay [3] and 100 to 300 nM in assay [4].
As to `CNc1nccc2c(Oc3ccc(NC(=O)c4cnc(C)n(-c5ccc(F)cc5)c4=O)cc3)ccnc12` [Compound 543, 1-(4-fluorophenyl)-2-methyl-N-[4-[[8-(methylamino)-1,7-naphthyridin-4-yl)oxy]phenyl]-6-oxopyrimidine-5-carboxamide], the values for the half-inhibitory concentration (IC50) in assay [3] and in assay [4] were under 100 nM and over 300 nM, respectively.
For `COc1cc2nccc(Oc3ccc(NC(=O)c4cnc(COC(C)=O)c(-c5ccc(F)cc5)c4O)cc3F)c2nc1OC` [Compound 544, [5-[[4-[(6,7-dimethoxy-1,5-naphthyridin-4-yl)oxy]-3-fluorophenyl]carbamoyl]-3-(4-fluorophenyl)-4-hydroxypyridin-2-yl]methyl acetate], the IC50 in assay [3] and in assay [4] was under 100 nM throughout.
For the compound `Cc1ccc(C(=O)Nc2ccc(Oc3ccnc4cc(O)cnc34)c(F)c2)c(=O)n1-c1ccc(F)cc1` [Compound 551, N-[3-Fluoro-4-[(7-hydroxy-1,5-naphthyridin-4-yl)oxy]phenyl]-1-(4-fluorophenyl)-6-methyl-2-oxopyridine-3-carboxamide], the IC50 in assay [3] was under 100 nM; in assay [4], 100 to 300 nM.
With `COCCOc1cnc2c(Oc3ccc(NC(=O)c4ccc(C)n(-c5ccc(F)cc5)c4=O)cc3F)ccnc2c1` [Compound 552, N-[3-Fluoro-4-[[7-(2-methoxyethoxy)-1,5-naphthyridin-4-yl]oxy]phenyl]-1-(4-fluorophenyl)-6-methyl-2-oxopyridine-3-carboxamide], the IC50 in assay [3] and in assay [4] was under 100 nM in each case.
Turning to `COc1cc2nccc(Oc3ccc(NC(=O)c4cn(C)c(C(=O)O)c(-c5ccc(F)cc5)c4=O)cc3F)c2nc1OC` [Compound 553, 5-[[4-[(6,7-Dimethoxy-1,5-naphthyridin-4-yl)oxy]-3-fluorophenyl]carbamoyl]-3-(4-fluorophenyl)-1-methyl-4-oxopyridine-2-carboxylic acid], the 50% inhibitory concentration (IC50) in assay [3] was under 100 nM; in assay [4], over 300 nM.
As to `Cc1nc(C)c(-c2ccc(F)cc2)c(O)c1C(=O)Nc1ccc(Oc2ccnc3cc(O)cnc23)c(F)c1` [Compound 554, N-[3-Fluoro-4-[(7-hydroxy-1,5-naphthyridin-4-yl)oxy]phenyl]-5-(4-fluorophenyl)-4-hydroxy-2,6-dimethylpyridine-3-carboxamide], the IC50 in assay [3] and in assay [4] was under 100 nM in each case.
As for `COCCOc1cnc2c(Oc3ccc(NC(=O)c4c(C)nc(C)c(-c5ccc(F)cc5)c4O)cc3F)ccnc2c1` [Compound 555, N-[3-Fluoro-4-[[7-(2-methoxyethoxy)-1,5-naphthyridin-4-yl]oxy]phenyl]-5-(4-fluorophenyl)-4-hydroxy-2,6-dimethylpyridine-3-carboxamide], the half-inhibitory concentration (IC50) in assay [3] and in assay [4] was under 100 nM each time.
`COc1cc2nccc(Oc3ccc(NC(=O)c4cn(C)c(CF)c(-c5ccc(F)cc5C)c4=O)cc3F)c2nc1OC` [Compound 556, N-[4-[(6,7-Dimethoxy-1,5-naphthyridin-4-yl)oxy]-3-fluorophenyl]-6-(fluoromethyl)-5-(4-fluoro-2-methylphenyl)-1-methyl-4-oxopyridine-3-carboxamide]: the IC50 in assay [3] was under 100 nM; in assay [4], over 300 nM.
Regarding `COCCOc1nc2c(Oc3ccc(NC(=O)c4cn(C)c(CF)c(-c5ccc(F)cc5)c4=O)cc3F)ccnc2cc1OC` [Compound 557, N-[3-Fluoro-4-[[7-methoxy-6-(2-methoxyethoxy)-1,5-naphthyridin-4-yl]oxy]phenyl]-6-(fluoromethyl)-5-(4-fluorophenyl)-1-methyl-4-oxopyridine-3-carboxamide], the results for the IC50 in assay [3] and in assay [4] were under 100 nM and 100 to 300 nM, respectively.
Take `CCn1cc(C(=O)Nc2ccc(Oc3ccnc4cc(OC)c(OC)nc34)cc2)c(=O)c(-c2ccc(F)cc2)c1CF` [Compound 558, N-[4-[(6,7-Dimethoxy-1,5-naphthyridin-4-yl)oxy]phenyl]-1-ethyl-6-(fluoromethyl)-5-(4-fluorophenyl)-4-oxopyridine-3-carboxamide]: the results for the half-inhibitory concentration (IC50) in assay [3] and in assay [4] were under 100 nM and over 300 nM, respectively.
The corresponding values for `CCn1cc(C(=O)Nc2ccc(Oc3ccnc4cc(OC)cnc34)c(F)c2)c(=O)c(-c2ccc(F)cc2)c1CF` [Compound 559, 1-Ethyl-N-[3-fluoro-4-[(7-methoxy-1,5-naphthyridin-4-yl)oxy]phenyl]-6-(fluoromethyl)-5-(4-fluorophenyl)-4-oxopyridine-3-carboxamide] are under 100 nM and over 300 nM.
Regarding `COc1cc2nccc(Oc3ccc(NC(=O)c4cn(C)c(CF)c(-c5ccc(F)cc5)c4=O)cc3)c2nc1OC` [Compound 560, N-[4-[(6,7-Dimethoxy-1,5-naphthyridin-4-yl)oxy]phenyl]-6-(fluoromethyl)-5-(4-fluorophenyl)-1-methyl-4-oxopyridine-3-carboxamide], the figures for the half-maximal inhibitory concentration (IC50) in assay [3] and in assay [4] were under 100 nM and over 300 nM, respectively.
As for `COc1ccc2nccc(Oc3ccc(NC(=O)c4cn(C)c(CF)c(-c5ccc(F)cc5)c4=O)cc3F)c2n1` [Compound 561, N-[3-Fluoro-4-[(6-methoxy-1,5-naphthyridin-4-yl)oxy]phenyl]-6-(fluoromethyl)-5-(4-fluorophenyl)-1-methyl-4-oxopyridine-3-carboxamide], the figures for the IC50 in assay [3] and in assay [4] were under 100 nM and over 300 nM, respectively.
Regarding `CCn1cc(C(=O)Nc2ccc(Oc3ccnc4cc(OC)c(OC)nc34)c(F)c2)c(=O)c(-c2ccc(F)cc2)c1CF` [Compound 562, N-[4-[(6,7-Dimethoxy-1,5-naphthyridin-4-yl)oxy]-3-fluorophenyl]-1-ethyl-6-(fluoromethyl)-5-(4-fluorophenyl)-4-oxopyridine-3-carboxamide], the IC50 was under 100 nM in assay [3] and over 300 nM in assay [4].
